Assay [1] has as its system Breast patient VII PDX tumors. Kind of assay: Breast patient VII PDX model, combination with DOX. It is filed as in vivo, nude mice. On the procedure:
Nude mice bearing orthotopic the Breast patient VII PDX tumors received 5 mg/kg equivalent dose of GKT831 or HANP/GKT831 combined with 5 mg/kg of DOX via the tail vein once a week for 5 administrations.
Therapy resistant breast cancer PDX models were established in nude mice from surgically resected tumor tissues of both hormonal receptor positive (HR+) and triple negative breast cancer patients. Patient VII PDX model was derived tumor from HR+ breast cancer tissue that progressed after neoadjuvant therapy with Dox+ Taxol and adjuvant radiotherapy (50 Gy). Patient IX PDX model was derived from a breast cancer tissue that was resistant to Dox/cyclophosphamide/Taxol therapy and 50 Gy of pre-operative radiation therapy. Both patients developed recurrent tumors and deceased 23 and 25 months after surgery. […] CD44 is the cellular receptor for HA and therefore, HANP can target to CD44+ tumor and stromal cells. […] The targeted delivery of near-infrared (NIR) 830 dye labeled HANPs in the breast cancer PDX models were examined using optical imaging and histological analysis. […] Accumulation of HANPs in the liver was further examined.
The inhibition of NOX1/4 on tumor growth and sensitization of therapeutic responses to a chemotherapy drug, DOX, were examined in the breast Patient VII and Patient IX PDX models growing in the mammary fat pad of nude mice.

Assay [2] relates to human breast cancer MCF-7 cells. Kind of assay: Cell proliferation assay on MCF-7 cells. Particulars: MCF7, read-out: IC50, growth inhibition. It is filed as cell-based.
Assay [3] relates to ROS generation in MCF-7 cells (NOX1/4 activity). Nature of the assay: ROS production in MCF-7 cells (DCFDA assay). It is filed as cell-based, human.
Assay [4] has as its system Breast patient IX PDX tumors. Kind of assay: Breast patient IX PDX model, combination with Dox. It is filed as in vivo, nude mice.
Assay [5] relates to Breast patient VII PDX tumors. Nature of the assay: RNAseq gene expression profiles of PDX tumors after five i.v. treatments. It is filed as in vivo, nude mice. On the procedure: ATFB was increased by HANP/GKT831 but decrease in GKT831 treated tumor.
Biomaterial low molecular weight HA generated nanoparticle drug carrier has unique biological activities compared with other nanoparticle drug carriers. […] To understand molecular mechanisms by which HANP/GKT831 enhanced responses to DNA damaging drug and radiation, gene expression profiles of the breast patient VII PDX tumors following five i.v. treatments were analyzed using RNAseq assay. […] Since human immune cells express NOX2 subtype, HANP/GKT831 treatment may not affect tumor immune responses but GKT831 treatment may decrease immune responses in tumors. Furthermore, HANP/GKT831 inhibited the expression of mitochondrial electron transport and ATP production genes, which promote tumor cell death (FIG. 7B). […] Therefore, it is likely that those differences in gene regulation contributed to a strong chemo- and radiotherapy enhancement effect of HANP/GKT831.

This note sets out measurements from patent US12377117B2, “Hyaluronic acid nanoparticles comprising NADPH oxidases inhibitors and uses in treating cancer” (priority 2019, dated 2025).

The term IC50 denotes the midpoint of a concentration-inhibition curve.

“And” between values parts separate entries of the source, which are not always exact repeats. Equal entries are not always repeated. “Also recorded” adds a separate entry of the source.

Turning to `COc1cccc2c1C(=O)c1c(O)c3c(c(O)c1C2=O)C[C@@](O)(C(=O)CO)C[C@@H]3O[C@H]1C[C@H](N)[C@H](O)[C@H](C)O1` [DOX, doxorubicin], the “increase in tumor volume compared the starting tumor volume” value in assay [1] (5 mg/kg i.v. weekly x5) was 150%. For the same molecule, the “tumor growth inhibition compared to no treatment control” value in assay [1] (single agent treatment) is ~40% and 60%.

In the case of `CN(C)c1cccc(-c2c3c(=O)n(-c4ccccc4Cl)[nH]c3cc(=O)n2C)c1` [GKT831, 2-(2-chlorophenyl)-4-(3-(dimethylamino)phenyl)-5-methyl-1,2-dihydro-3H-pyrazolo[4,3-c]pyridine-3,6(5H)-dione], the IC50 in assay [2] worked out at 30 µM. In addition, the ROS generation entry in assay [3] was “did not show obvious ROS reduction”. In assay [1], the “anti-tumor effect / tumor growth inhibition” value is given as “did not show a significant difference”. The “effect on tumor growth” value in assay [4] is “did not show a significant difference; also recorded: did not show any effect on tumor growth”. Moreover, in assay [5] (PDX tumors (FIG. 7B)), the ATFB expression result is “decrease”; the “expression of mitochondrial electron transport and ATP production genes” value is “increased MT-ND and MT-CO2 expression”. The “expression of mitochondrial electron transport and ATP production genes” value in assay [5] (PDX tumors (FIG. 7B), listed as GKT 831) is listed as “upregulated the expression of some of those genes”. In assay [5] (patient VII PDX tumors), the NOX2 gene expression entry is recorded as “downregulated” and the “level of NOX4 gene expression” value is “did not significantly affect”.
